{
  "source": "patent US20050004193A1",
  "about": "“Pharmaceutical combination for the prevention or treatment of cardiovascular, cardiopulmonary, pulmonary, or renal diseases” (Boehringer Ingelheim International GmbH, priority 2003, published 2005)",
  "key": {"[1]": {"molecular_target": "T1, human PPARgamma-ligand binding domain (LBD) (Homo sapiens, UniProt P37231)", "T1 construct": "codes for the amino acids 205-505 of the human PPARgamma2 transcription factor; made in house; host or cells: E. coli BL21(DE3), vector pGEX4T-1", "T1 sequence (P37231 205-505)": "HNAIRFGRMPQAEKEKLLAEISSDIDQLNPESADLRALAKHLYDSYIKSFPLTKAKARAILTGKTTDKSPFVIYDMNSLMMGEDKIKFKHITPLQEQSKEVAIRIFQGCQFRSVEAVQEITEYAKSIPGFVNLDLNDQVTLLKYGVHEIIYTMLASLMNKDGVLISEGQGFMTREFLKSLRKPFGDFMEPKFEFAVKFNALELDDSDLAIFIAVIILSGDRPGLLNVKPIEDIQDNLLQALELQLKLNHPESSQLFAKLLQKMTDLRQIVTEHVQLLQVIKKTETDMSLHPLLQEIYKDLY", "assay": "AlphaScreen: recruiting of CBP LXXLL peptide by GST-PPARgamma-LBD", "format": "biochemical", "settings": "for direct activation of the PPARgamma-LBD / recruiting of the LXXLL peptide: concentrations of up to 50 μM", "description": "Protein containing the human PPARgamma-ligand binding domain (LBD) is prepared as a GST fusion protein in E. coli and purified by affinity chromatography. […] The fusion protein is expressed in the E. coli strain BL21(DE3) recommended for pGEX vectors after induction with 0.2 mM IPTG for 4 hours at 25° C. The bacteria are pelleted after the induction and frozen in batches in PBS, pH 7.4. After opening up in a French Press, the dissolved GST-PPARgamma-LBD-fusion protein is purified using a GSTrap column (Pharmacia). Elution is carried out by the addition of 20 mM reduced glutathione. The GST-PPARgamma-LBD-protein fractions are desalinated using a HiTrap desalting column (Pharmacia) and the protein concentration is determined using a standard assay.\nThe assay buffer consists of 25 mM Hepes pH7.4, 100 mM NaCl, 1 mM DTT, 0.1% Tween-20, and 0.1% BSA. […] The final DMSO concentration in the assay is 1% (v/v). A 1% DMSO solution is used as the background control (NSB). The measurement is done using a Packard fusion measuring device."}, "[2]": {"molecular_target": "T2, human PPARgamma-ligand binding domain (LBD) (Homo sapiens, UniProt P37231)", "T2 sequence (P37231 205-505)": "T1 sequence (P37231 205-505)", "T2 sequence (P19793 220-461 partner limits assumed)": "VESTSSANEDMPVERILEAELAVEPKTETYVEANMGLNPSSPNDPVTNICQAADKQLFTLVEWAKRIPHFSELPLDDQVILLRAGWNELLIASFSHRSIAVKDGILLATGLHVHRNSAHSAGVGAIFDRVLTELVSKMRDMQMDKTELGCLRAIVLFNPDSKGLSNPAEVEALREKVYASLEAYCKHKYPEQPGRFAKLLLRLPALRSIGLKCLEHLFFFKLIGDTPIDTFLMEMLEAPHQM", "assay": "SPA assay: displacement of 3H-labeled rosiglitazone from PPARgamma-LBD", "settings": "for MW (SPA signal, bound 3H-rosiglitazone): NSB 217, Bmax 911; for displacement of the radioactive rosiglitazone from the binding pocket: very large excesses of test substance", "description": "Protein containing the human PPARgamma-ligand binding domain (LBD) is prepared as a GST fusion protein in E. coli and purified by affinity chromatography. To do this, a DNA section which codes for the amino acids 205-505 of the human PPARgamma2 transcription factor (cf. Genbank entry U79012) is subcloned via the additionally inserted restriction cutting sites BamH I and Xho I into the expression vector pGEX4T-I (Amersham) and the sequence of the section is monitored. […] The bacteria are pelleted after the induction and frozen in batches in PBS, pH 7.4. After opening up in a French Press, the dissolved GST-PPARgamma-LBD-fusion protein is purified using a GSTrap column (Pharmacia). Elution is carried out by the addition of 20 mM reduced glutathione. The GST-PPARgamma-LBD-protein fractions are desalinated using a HiTrap desalting column (Pharmacia) and the protein concentration is determined using a standard assay. Protein containing the human RXRalpha ligand binding domain (LBD) is prepared as a His tag fusion protein in E. coli and purified by affinity chromatography. To do this, a DNA section which codes for the amino acids 220-461 of the human RXRalpha transcription factor (cf. Genbank entry NM_002957, nt 729-1457) is subcloned via the additionally introduced restriction cutting sites BamH I and Not I into the expression vector pET28c (Novagen) and the sequence of the section is monitored. The fusion protein is expressed in the E. […] The bacteria are pelleted after the expression and frozen in batches in PBS, pH 7.4. After opening up in a French Press, the dissolved His-RXRalpha-LBD-fusion protein is purified using a HiTrap chelating column (Pharmacia). Elution is carried out using a 500 mM imidazole step. The His-RXRalpha-LBD protein fractions are desalinated using a HiTrap desalting column (Pharmacia) and the protein concentration is determined using a standard assay. A description of the SPA assay format can be found in R. Mukherjee et al., J Steroid Biochem Mol Biol (2002) 81:217-225."}, "[3]": {"molecular_target": "T3, fusion protein of ligand binding domain of human PPARgamma2 transcription factor and yeast GAL4 DNA binding domain (Homo sapiens, UniProt P37231)", "T3 construct": "codes for amino acids 205-505 of the human PPARgamma2 transcription factor; expressed in transfected cells", "T3 sequence (P37231 205-505)": "T1 sequence (P37231 205-505)", "assay": "Luciferase activity in stably transformed PPARgamma reporter cell line (CHO-K1 clone 11)", "format": "cell-based", "procedure": "After 24 hours, the medium is changed for one without any added G418. The test substances are brought to 100 times the desired concentration with a suitable solvent, e.g., DMSO, and diluted 1:100 with the medium placed in the cell culture plate. The solvent used, e.g., DMSO, is used as the background control in the same concentration. […] Luminescence is measured after a five minute wait using a Packard TopCount NXT. The luciferase activity is obtained by integrating the relative luciferase units (RLU) of the first ten seconds after the start of measurement."}, "[4]": {"assay": "Dissolution of active substances from Tablet 3", "format": "physicochemical", "settings": "Tablet 3, three batches", "text": "This combination of active substances and excipients is then compressed with a suitable tablet press (e.g., Korsch EKO or Fette P1200) to form tablets. […]"}},
  "note": "Several values for one entry are separate records, joined by “and”; a condition that tells them apart may be missing. Identical values can stand only once.",
  "data": [
    {"smiles": "CCCCC1=NC2(CCCC2)C(=O)N1Cc1ccc(-c2ccccc2-c2nnn[nH]2)cc1", "note": "[Irbesartan]", "values": [
      {"measurement": "direct activation of the PPARgamma-LBD / recruiting of the LXXLL peptide", "setting": "[1]", "value": "does not result in any direct activation of the PPARgamma-LBD"},
      {"measurement": "MW (SPA signal, bound 3H-rosiglitazone)", "setting": "[2]; conc. 1.00E-04 M", "value": 510},
      {"measurement": "MW (SPA signal, bound 3H-rosiglitazone)", "setting": "[2]; conc. 3.00E-07 M", "value": 810},
      {"measurement": "displacement of the radioactive rosiglitazone from the binding pocket", "setting": "[2]", "value": "no concentration-dependent displacement of the radioactive rosiglitazone"}
    ]},
    {"smiles": "CCCCc1nc(Cl)c(CO)n1Cc1ccc(-c2ccccc2-c2nn[nH]n2)cc1", "note": "[Losartan]", "values": [
      {"measurement": "direct activation of the PPARgamma-LBD / recruiting of the LXXLL peptide", "setting": "[1]", "value": "does not result in any direct activation of the PPARgamma-LBD"},
      {"measurement": "displacement of the radioactive rosiglitazone from the binding pocket", "setting": "[2]", "value": "no concentration-dependent displacement of the radioactive rosiglitazone"}
    ]},
    {"smiles": "CCCc1nc2c(C)cc(-c3nc4ccccc4n3C)cc2n1Cc1ccc(-c2ccccc2C(=O)O)cc1", "note": "[Telmisartan, 4′-[2-n-propyl-4-methyl-6-(1-methylbenzimidazol-2-yl)benzimidazol-1-ylmethyl]biphenyl-2-carboxylic acid]", "values": [
      {"measurement": "MW (AlphaScreen signal)", "setting": "[1]; conc. 3.00E-06 M", "value": 720},
      {"measurement": "direct activation of the PPARgamma-LBD / recruiting of the LXXLL peptide", "setting": "[1]", "value": "does not result in any direct activation of the PPARgamma-LBD"},
      {"measurement": "displacement of the radioactive rosiglitazone from the binding pocket", "setting": "[2]", "value": "no concentration-dependent displacement of the radioactive rosiglitazone"},
      {"measurement": "activation of the PPARgamma pathway in the PPARgamma reporter cell line", "setting": "[3]", "value": "particularly potent activation of the PPARgamma pathway"},
      {"measurement": "MW (luciferase activity)", "setting": "[3]; conc. 3.00E-07 M, 24 hours", "value": 760, "unit": "RLU"}
    ]},
    {"smiles": "NS(=O)(=O)c1cc2c(cc1Cl)NCNS2(=O)=O", "note": "[hydrochlorothiazide]", "values": [
      {"measurement": "dissolution of hydrochlorothiazide from tablets", "setting": "[4]; 900 mL of 0.1 M HCl, 100 rpm, 30 minutes", "value": "69±6.3% and 72±2.1% and 78±1.8%"}
    ]},
    {"smiles": "CCCc1nc2c(C)cc(-c3nc4ccccc4n3C)cc2n1Cc1ccc(-c2ccccc2C(=O)[O-])cc1.[Na+]", "note": "[telmisartan sodium salt]", "values": [
      {"measurement": "dissolution of telmisartan sodium salt from tablets", "setting": "[4]; 900 mL of 0.1 M phosphate buffer, pH 7.5, 30 minutes stirring, 75 rpm", "value": "92±1.5% and 96±1.8% and 100±1.0%"}
    ]}
  ]
}
